Measurements taken from patent US20230085307A1, “PYRIDAZINONE COMPOUND AND HERBICIDE” (NISSAN CHEMICAL CORPORATION, priority 2019, published 2023).

What was measured:
velvetleaf [1] = assay: Test Example 4: herbicidal effect by soil treatment (Table 19, symbol M); format: in vivo, velvetleaf (Abutilon theophrasti)
Outline: (§1)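 Emulsion of test compound, water-diluted to predetermined amount, sprayed on soil after sowing (seed depth ~1.5 cm, sterilized diluvial soil). Greenhouse, 25–30° C. Effect graded at three weeks post-spray.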

rice flat sedge = assay: Test Example 3: herbicidal effect by foliage application, Wagner pot (Table 18, symbol E); format: in vivo, rice flat sedge (Cyperus iria)
Outline: (§2)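 Plants were sown in alluvial soil held under 0.1–0.5 cm standing water and grown 14 days in a greenhouse at 25–30 °C. An emulsifiable formulation, water-diluted to the set dose, was then sprayed onto the foliage, and effects were scored three weeks later using previously defined criteria.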

lambsquarters [2] = assay: Test Example 5: herbicidal effect by foliage application, plastic box (Table 20, symbol O); format: in vivo, lambsquarters (Chenopodium album); conditions: foliage application, three weeks after application
Outline: (§3)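 Post-emergence foliar test in sterilized diluvial soil. Compound applied as water-diluted emulsion at a predetermined rate to 14-day-old plants; evaluation at three weeks.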

late watergrass = assay: Test Example 2: herbicidal activity, application during weed generation under submerged conditions (Table 17, symbol A); format: in vivo, late watergrass (Echinochloa oryzicola); conditions: application during weed generation, submerged conditions
Outline: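 Steps: fill Wagner pots with alluvial soil; add water to give 4 cm depth; sow the species mixed; grow under glass at 25–30° C.; at 1–2 leaves apply water-diluted emulsion formulation to the water surface at a fixed herbicide amount; score after 3 weeks.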

chickweed = assay: Test Example 4: herbicidal effect by soil treatment (Table 19, symbol P); format: in vivo, common chickweed (Stellaria media)
Outline: as §1

windgrass [3] = assay: Test Example 5: herbicidal effect by foliage application, plastic box (Table 20, symbol L); format: in vivo, windgrass (Apera spica-venti); conditions: foliage application, three weeks after application
Outline: as §3

southern crabgrass = assay: Test Example 5: herbicidal effect by foliage application, plastic box (Table 20, symbol F); format: in vivo, southern crabgrass (Digitaria ciliaris); conditions: foliage application, three weeks after application
Outline: as §3

windgrass [4] = assay: Test Example 4: herbicidal effect by soil treatment (Table 19, symbol L); format: in vivo, windgrass (Apera spica-venti)
Outline: as §1

oval-leafed pondweed = assay: Test Example 1: herbicidal activity, application before weed generation under submerged conditions (Table 16, symbol C); format: in vivo, oval-leafed pondweed (Monochoria vaginalis)
Outline: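 Emulsion formulation, water-diluted to set dose, was put onto the flooded surface (4 cm depth, alluvial soil) the same day weeds were sown and 2.5-leaf rice transplanted. After 3 weeks at 25-30 °C under glass, each species was rated 0 (≤5% kill) to 5 (≥90% kill).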

velvetleaf [5] = assay: Test Example 5: herbicidal effect by foliage application, plastic box (Table 20, symbol M); format: in vivo, velvetleaf (Abutilon theophrasti); conditions: foliage application, three weeks after application
Outline: as §3

lambsquarters [6] = assay: Test Example 4: herbicidal effect by soil treatment (Table 19, symbol O); format: in vivo, lambsquarters (Chenopodium album)
Outline: as §1

Italian ryegrass = assay: Test Example 5: herbicidal effect by foliage application, plastic box (Table 20, symbol K); format: in vivo, Italian ryegrass (Lolium multiflorum); conditions: foliage application, three weeks after application
Outline: as §3

green foxtail = assay: Test Example 4: herbicidal effect by soil treatment (Table 19, symbol G); format: in vivo, green foxtail (Setaria viridis)
Outline: as §1

Chinese sprangletop = assay: Test Example 3: herbicidal effect by foliage application, Wagner pot (Table 18, symbol D); format: in vivo, chinese sprangletop (Leptochloa chinensis)
Outline: as §2

persian speedwell [7] = assay: Test Example 4: herbicidal effect by soil treatment (Table 19, symbol R); format: in vivo, Persian speedwell (Veronica persica)
Outline: as §1

barnyard grass = assay: Test Example 3: herbicidal effect by foliage application, Wagner pot (Table 18, symbol H); format: in vivo, barnyard grass (Echinochloa crus-galli)
Outline: as §2

persian speedwell [8] = assay: Test Example 5: herbicidal effect by foliage application, plastic box (Table 20, symbol R); format: in vivo, Persian speedwell (Veronica persica); conditions: foliage application, three weeks after application
Outline: as §3

[9] = amount of applied herbicide 310 g/ha
[10] = amount of applied herbicide 320 g/ha

| Structure (SMILES) | M: velvetleaf, herbicidal effect grade (velvetleaf [1]; [10]) | herbicidal effect on rice flat sedge (E) (rice flat sedge; 320 g/ha) | O: lambsquarters, herbicidal effect grade (lambsquarters [2]; 320 g/ha) | herbicidal effect rating, A: late watergrass (late watergrass; AAH 320 g/ha) | P: chickweed, herbicidal effect grade (chickweed; [10]) | L: windgrass, herbicidal effect grade (windgrass [3]; 320 g/ha) | F: southern crabgrass, herbicidal effect grade (southern crabgrass; 320 g/ha) | L: windgrass, herbicidal effect grade (windgrass [4]; [10]) | Herbicidal effect, C: oval-leafed pondweed (oval-leafed pondweed; [10]) | M: velvetleaf, herbicidal effect grade (velvetleaf [5]; 320 g/ha) | O: lambsquarters, herbicidal effect grade (lambsquarters [6]; [10]) | K: Italian ryegrass, herbicidal effect grade (Italian ryegrass; 320 g/ha) | G: green foxtail, herbicidal effect grade (green foxtail; [10]) | herbicidal effect on Chinese sprangletop (D) (Chinese sprangletop; 320 g/ha) | R: persian speedwell, herbicidal effect grade (persian speedwell [7]; [10]) | herbicidal effect on barnyard grass (H) (barnyard grass; 320 g/ha) | R: persian speedwell, herbicidal effect grade (persian speedwell [8]; 320 g/ha) | other results |
| --- | --- | --- | --- | --- | --- | --- | --- | --- | --- | --- | --- | --- | --- | --- | --- | --- | --- | --- |
| CCCC(=O)Oc1c(C)nn(C)c(=O)c1-c1c(-c2ccccc2OC)sc2cc(OCC)ccc12 [3-090] | – | – | – | – | – | – | – | – | – | – | – | – | – | – | – | – | – | M: velvetleaf, herbicidal effect grade (velvetleaf [1]; [9]): 3 (Herbicidal rate of 40% or more and less than 70%); herbicidal effect on rice flat sedge (E) (rice flat sedge; 310 g/ha): 5 (Herbicidal rate of 90% or more (almost completely withered)); O: lambsquarters, herbicidal effect grade (lambsquarters [2]; 310 g/ha): 5 (Herbicidal rate of 90% or more (almost completely withered)); herbicidal effect rating, A: late watergrass (late watergrass; AAH 310 g/ha): 4 (Herbicidal rate of 70% or more and less than 90%); P: chickweed, herbicidal effect grade (chickweed; [9]): 4 (Herbicidal rate of 70% or more and less than 90%); L: windgrass, herbicidal effect grade (windgrass [3]; 310 g/ha): 5 (Herbicidal rate of 90% or more (almost completely withered)); F: southern crabgrass, herbicidal effect grade (southern crabgrass; 310 g/ha): 3 (Herbicidal rate of 40% or more and less than 70%); L: windgrass, herbicidal effect grade (windgrass [4]; [9]): 0 (Herbicidal rate of 5% or less (almost no effect)); Herbicidal effect, C: oval-leafed pondweed (oval-leafed pondweed; [9]): 4 (Herbicidal rate of 70% or more and less than 90%); M: velvetleaf, herbicidal effect grade (velvetleaf [5]; 310 g/ha): 5 (Herbicidal rate of 90% or more (almost completely withered)); O: lambsquarters, herbicidal effect grade (lambsquarters [6]; [9]): 4 (Herbicidal rate of 70% or more and less than 90%); K: Italian ryegrass, herbicidal effect grade (Italian ryegrass; 310 g/ha): 5 (Herbicidal rate of 90% or more (almost completely withered)); G: green foxtail, herbicidal effect grade (green foxtail; [9]): 3 (Herbicidal rate of 40% or more and less than 70%); herbicidal effect on Chinese sprangletop (D) (Chinese sprangletop; 310 g/ha): 5 (Herbicidal rate of 90% or more (almost completely withered)); R: persian speedwell, herbicidal effect grade (persian speedwell [7]; [9]): 5 (Herbicidal rate of 90% or more (almost completely withered)); herbicidal effect on barnyard grass (H) (barnyard grass; 310 g/ha): 5 (Herbicidal rate of 90% or more (almost completely withered)); R: persian speedwell, herbicidal effect grade (persian speedwell [8]; 310 g/ha): 5 (Herbicidal rate of 90% or more (almost completely withered)) |
| CCOc1ccc2c(-c3c(O)c(C)nn(C)c3=O)c(-c3ccc(OC)cc3)sc2c1 [3-091] | 0 (Herbicidal rate of 5% or less (almost no effect)) | 4 (Herbicidal rate of 70% or more and less than 90%) | 5 (Herbicidal rate of 90% or more (almost completely withered)) | 0 (Herbicidal rate of 5% or less (almost no effect)) | 4 (Herbicidal rate of 70% or more and less than 90%) | 0 (Herbicidal rate of 5% or less (almost no effect)) | 2 (Herbicidal rate of 20% or more and less than 40%) | 0 (Herbicidal rate of 5% or less (almost no effect)) | 4 (Herbicidal rate of 70% or more and less than 90%) | 4 (Herbicidal rate of 70% or more and less than 90%) | 5 (Herbicidal rate of 90% or more (almost completely withered)) | 0 (Herbicidal rate of 5% or less (almost no effect)) | 0 (Herbicidal rate of 5% or less (almost no effect)) | 0 (Herbicidal rate of 5% or less (almost no effect)) | 5 (Herbicidal rate of 90% or more (almost completely withered)) | 2 (Herbicidal rate of 20% or more and less than 40%) | 5 (Herbicidal rate of 90% or more (almost completely withered)) | – |
| CCOc1ccc2c(-c3c(O)c(C)nn(C)c3=O)c(-c3ccc(F)cc3OCC)sc2c1 [3-095] | 3 (Herbicidal rate of 40% or more and less than 70%) | 5 (Herbicidal rate of 90% or more (almost completely withered)) | 5 (Herbicidal rate of 90% or more (almost completely withered)) | 4 (Herbicidal rate of 70% or more and less than 90%) | 4 (Herbicidal rate of 70% or more and less than 90%) | 5 (Herbicidal rate of 90% or more (almost completely withered)) | 5 (Herbicidal rate of 90% or more (almost completely withered)) | 4 (Herbicidal rate of 70% or more and less than 90%) | 5 (Herbicidal rate of 90% or more (almost completely withered)) | 5 (Herbicidal rate of 90% or more (almost completely withered)) | 5 (Herbicidal rate of 90% or more (almost completely withered)) | 5 (Herbicidal rate of 90% or more (almost completely withered)) | 5 (Herbicidal rate of 90% or more (almost completely withered)) | 5 (Herbicidal rate of 90% or more (almost completely withered)) | 5 (Herbicidal rate of 90% or more (almost completely withered)) | 5 (Herbicidal rate of 90% or more (almost completely withered)) | 5 (Herbicidal rate of 90% or more (almost completely withered)) | – |
| COc1ccccc1-c1sc2cc(OC(C)C)ccc2c1-c1c(O)c(C)nn(C)c1=O [3-101] | 3 (Herbicidal rate of 40% or more and less than 70%) | 5 (Herbicidal rate of 90% or more (almost completely withered)) | 5 (Herbicidal rate of 90% or more (almost completely withered)) | 3 (Herbicidal rate of 40% or more and less than 70%) | 4 (Herbicidal rate of 70% or more and less than 90%) | 5 (Herbicidal rate of 90% or more (almost completely withered)) | 5 (Herbicidal rate of 90% or more (almost completely withered)) | 4 (Herbicidal rate of 70% or more and less than 90%) | 5 (Herbicidal rate of 90% or more (almost completely withered)) | 5 (Herbicidal rate of 90% or more (almost completely withered)) | 5 (Herbicidal rate of 90% or more (almost completely withered)) | 5 (Herbicidal rate of 90% or more (almost completely withered)) | 5 (Herbicidal rate of 90% or more (almost completely withered)) | 3 (Herbicidal rate of 40% or more and less than 70%) | 4 (Herbicidal rate of 70% or more and less than 90%) | 5 (Herbicidal rate of 90% or more (almost completely withered)) | 5 (Herbicidal rate of 90% or more (almost completely withered)) | – |
